Test system: SW 1271 complex tumor spheroid viability
Test: Anticancer human tumor SW 1271 cell line growth inhibition;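 further: spheroids exposed to agents for seven days before readout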;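 on viability, T/C: percent of DMSO vehicle control luminescence so 100% = vehicle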
Conditions: for IC50: curve of first compound; for viability, T/C: stronger effect = lower value
Outline: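 Complex tumor spheroids combined malignant cells with endothelial cells and mesenchymal stem cells. DNA-damaging drugs and DNA repair inhibitors were tested alone and in combination, at half-log dilutions down from clinical Cmax (top 10 microM if Cmax unknown), 0.25% DMSO final.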

[1] = second compound 1 µM, first compound 0.0316 µM
[2] = second compound 1 µM, first compound 0.1 µM
[3] = second compound 1 µM, first compound 0.316 µM
[4] = second compound 1 µM, first compound 1 µM
[5] = second compound 1 µM, first compound 3.16 µM
[6] = second compound 1 µM, first compound 10 µM
[7] = second compound 3.16 µM, first compound 0.0316 µM
[8] = second compound 3.16 µM, first compound 0.1 µM
[9] = second compound 3.16 µM, first compound 0.316 µM
[10] = second compound 3.16 µM, first compound 1 µM
[11] = second compound 3.16 µM, first compound 3.16 µM
[12] = second compound 3.16 µM, first compound 10 µM
[13] = second compound 10 µM, first compound 0.0316 µM
[14] = second compound 10 µM, first compound 0.1 µM
[15] = second compound 10 µM, first compound 0.316 µM
[16] = second compound 10 µM, first compound 1 µM
[17] = second compound 10 µM, first compound 3.16 µM
[18] = second compound 10 µM, first compound 10 µM
[19] = second compound 31.6 µM, first compound 0.0316 µM
[20] = second compound 31.6 µM, first compound 0.1 µM
[21] = second compound 31.6 µM, first compound 0.316 µM
[22] = second compound 31.6 µM, first compound 1 µM
[23] = second compound 31.6 µM, first compound 3.16 µM
[24] = second compound 31.6 µM, first compound 10 µM
[25] = second compound 100 µM, first compound 0.0316 µM
[26] = second compound 100 µM, first compound 0.1 µM
[27] = second compound 100 µM, first compound 0.316 µM
[28] = second compound 100 µM, first compound 1 µM
[29] = second compound 100 µM, first compound 3.16 µM
[30] = second compound 100 µM, first compound 10 µM

SMILES	IC50 (second compound 1 µM) [nM]	IC50 (second compound 3.16 µM) [nM]	IC50 (second compound 10 µM) [nM]	IC50 (second compound 31.6 µM) [nM]	IC50 (second compound 100 µM) [nM]	viability, T/C [1] [%]	viability, T/C [2] [%]	viability, T/C [3] [%]	viability, T/C [4] [%]	viability, T/C [5] [%]	viability, T/C [6] [%]	viability, T/C [7] [%]	viability, T/C [8] [%]	viability, T/C [9] [%]	viability, T/C [10] [%]	viability, T/C [11] [%]	viability, T/C [12] [%]	viability, T/C [13] [%]	viability, T/C [14] [%]	viability, T/C [15] [%]	also measured
CC(C)n1c(=O)n(C)c2cnc3cc(F)c(-c4ccc(OCCCN5CCCCC5)nc4)cc3c21 + Cn1nnc2c(C(N)=O)ncn2c1=O	> 10000	> 10000	7490	4870	1040	99.6	90.9	93.2	101	99.6	54.7	101	92.5	98.8	102	88.4	50.9	87.1	97.7	94.3	viability, T/C [16]: 79.9%; viability, T/C [17]: 75.6%; viability, T/C [18]: 41.6%; viability, T/C [19]: 93%; viability, T/C [20]: 84.5%; viability, T/C [21]: 86.1%; viability, T/C [22]: 76.8%; viability, T/C [23]: 63.5%; viability, T/C [24]: 29.5%; viability, T/C [25]: 70.5%; viability, T/C [26]: 69.6%; viability, T/C [27]: 64.2%; viability, T/C [28]: 51.5%; viability, T/C [29]: 31%; viability, T/C [30]: 24.9%
COc1ccc([C@@H](O)c2cc(-c3ncnc4cc(N5CCOCC5)ccc34)c(F)cc2Cl)nn1 + Cn1nnc2c(C(N)=O)ncn2c1=O	799	1520	1810	1410	808	95.7	89.6	91.7	39.6	38.3	11	115	97.8	82.5	60.7	32.3	10	97.1	103	85.2	viability, T/C [16]: 65.1%; viability, T/C [17]: 36.2%; viability, T/C [18]: 10.9%; viability, T/C [19]: 101%; viability, T/C [20]: 96.2%; viability, T/C [21]: 93.4%; viability, T/C [22]: 55.6%; viability, T/C [23]: 30.3%; viability, T/C [24]: 10.2%; viability, T/C [25]: 83.8%; viability, T/C [26]: 82.3%; viability, T/C [27]: 66.8%; viability, T/C [28]: 42.9%; viability, T/C [29]: 28.6%; viability, T/C [30]: 9.15%

Reference: PubChem BioAssay AID1845215 (Molecular Pharmacology Branch, DTP, NCI, 2023)
